Measurements taken from ChEMBL document CHEMBL4004862, “Discovery of novel CDK8 inhibitors using multiple crystal structures in docking-based virtual screening” (Eur J Med Chem, 2017).

Columns and labels:
[1] = target: T1, CDK8/Cyclin C (Homo sapiens) (UniProt P49336+P24863); experiment: Inhibition of Alexa647 tracer binding to full length recombinant human His-tagged CDK8/Cyclin C expressed in baculovirus expression system at 5 uM preincubated for 20 mins followed by tracer addition measured after 60 mins by TR-FRET based Lanthascreen assay relative to control
[2] = target: T1, CDK8/Cyclin C (Homo sapiens); experiment: Inhibition of Alexa647 tracer binding to full length recombinant human His-tagged CDK8/Cyclin C expressed in baculovirus expression system at 2.5 uM preincubated for 20 mins followed by tracer addition measured after 60 mins by TR-FRET based Lanthascreen assay relative to control
CDK8/Cyclin C = CDK8/Cyclin C (Homo sapiens, UniProt P49336); experiment: Inhibition of Alexa647 tracer binding to full length recombinant human His-tagged CDK8/Cyclin C expressed in baculovirus expression system preincubated for 20 mins followed by tracer addition measured after 60 mins by TR-FRET based Lanthascreen assay
Chain of CDK8/Cyclin C (P49336 whole entry): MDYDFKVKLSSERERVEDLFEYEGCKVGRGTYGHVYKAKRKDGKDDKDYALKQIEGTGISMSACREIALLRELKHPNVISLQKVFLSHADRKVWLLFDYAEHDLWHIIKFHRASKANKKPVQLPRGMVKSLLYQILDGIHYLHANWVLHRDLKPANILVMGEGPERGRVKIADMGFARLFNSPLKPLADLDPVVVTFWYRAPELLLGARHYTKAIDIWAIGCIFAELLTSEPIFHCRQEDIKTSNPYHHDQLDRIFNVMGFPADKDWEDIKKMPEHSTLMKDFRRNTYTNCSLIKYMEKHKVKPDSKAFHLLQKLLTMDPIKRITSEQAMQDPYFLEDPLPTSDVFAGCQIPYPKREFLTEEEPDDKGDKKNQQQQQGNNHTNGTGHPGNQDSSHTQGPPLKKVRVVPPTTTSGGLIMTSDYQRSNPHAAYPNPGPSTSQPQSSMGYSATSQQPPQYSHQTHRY
Chain of CDK8/Cyclin C (P24863 whole entry, further chain): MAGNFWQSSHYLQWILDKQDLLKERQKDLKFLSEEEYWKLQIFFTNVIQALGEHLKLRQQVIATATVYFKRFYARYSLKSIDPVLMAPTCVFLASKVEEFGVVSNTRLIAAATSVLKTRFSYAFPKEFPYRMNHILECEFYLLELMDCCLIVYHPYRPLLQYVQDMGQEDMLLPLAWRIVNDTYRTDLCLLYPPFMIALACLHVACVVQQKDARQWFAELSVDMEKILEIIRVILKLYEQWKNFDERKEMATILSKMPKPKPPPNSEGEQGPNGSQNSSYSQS

[3] = target: T1, CDK8/Cyclin C (Homo sapiens); experiment: Inhibition of Alexa647 tracer binding to full length recombinant human His-tagged CDK8/Cyclin C expressed in baculovirus expression system at 0.5 uM preincubated for 20 mins followed by tracer addition measured after 60 mins by TR-FRET based Lanthascreen assay relative to control
[4] = target: T1, CDK8/Cyclin C (Homo sapiens); experiment: Inhibition of Alexa647 tracer binding to full length recombinant human His-tagged CDK8/Cyclin C expressed in baculovirus expression system at 1 uM preincubated for 20 mins followed by tracer addition measured after 60 mins by TR-FRET based Lanthascreen assay relative to control

inhibition [1] [%] | Structure (SMILES) | other results
3 | COc1ccc(CNC(=O)C2CCCN(c3cnc4nccnc4c3)C2)cc1 (stereo not given) | –
-2 | O=C(NC1CCCc2ccccc21)C1CCN(C2=CN3C(C=C2)NNC3c2ccc(Cl)cc2)CC1 (stereo not given) | –
20 | COc1cccc(NC(=O)CSc2nc3ccc(NC(=O)Nc4cc(C)cc(C)c4)cc3s2)c1 | –
14 | O=C(Cc1ccc(NC(=O)N2CCSc3ncccc32)cc1)NCc1cccc(Cl)c1 | –
2 | CSc1cccc(NC(=O)NC2CCN(c3ccc(F)cc3)C2=O)c1 (stereo not given) | –
4 | COc1ccc(CNC(=O)Cn2cnc3c(C(N)=O)nsc3c2=O)cc1 | –
0 | COc1ccc(-n2nc(C(=O)NCC(=O)N3CCC(Cc4ccccc4)CC3)c3ccccc3c2=O)cc1 | –
52 | Cc1c(C(=O)Nc2ccc3ccc(=O)oc3c2)nnn1-c1ccc2noc(-c3ccccc3)c2c1 | –
– | CC(=O)Nc1ccc(NC(=O)c2nnn(-c3ccc4noc(-c5ccc(Cl)cc5)c4c3)c2C)cc1 | inhibition [2]: 4%
11 | CCOC(=O)Cc1ccc(NC(=O)Nc2cc3c(cc2N2CCCC2)n(CC)c(=O)n3CC)cc1 | –
28 | Cc1cccc(N2CCN(c3ncnc4onc(C)c34)CC2)c1C | –
46 | CCc1ccc(NC(=O)c2c(O)c3ccccc3n(CC)c2=O)cc1 | –
-1 | O=C(Nc1cccc2ccccc12)c1cccc(C2CSC(S(=O)(=O)N3CCOCC3)C2)c1 (stereo not given) | –
-3 | O=C(Nc1ccc(Cl)cc1)N1CCCC(c2cccc(C(=O)N3CCC4(CC3)OCCO4)c2)C1 (stereo not given) | –
80 | CC(=O)c1cccc(NC(=O)c2nnn(-c3ccc4noc(-c5ccccc5)c4c3)c2C)c1 | IC50 (CDK8/Cyclin C): 93 nM
-6 | CN1C(=O)c2ccccc2C(C(=O)Nc2ccc(S(=O)(=O)N3CCCCC3)cc2)C1c1cccs1 (stereo not given) | –
0 | O=C(OCc1cc(=O)n2nc(C3CC3)sc2n1)c1ccc(NC(=O)c2cccc3ccccc23)cc1 | –
18 | CCCn1c(=O)oc2cc(NC(=O)Nc3cccc(C)c3)ccc21 | –
14 | Cc1oc2ccccc2c1C(=O)CSc1nc(O)c2c(n1)NCN2 | –
95 | CC(=O)N1CCC2(CC1)CC(=O)c1ccc(OCC(=O)Nc3cccc(C(F)(F)F)c3)cc1O2 | inhibition [3]: 69%
5 | CCOc1ccc(NC(=O)N2CCCC(c3cccc(C(=O)Nc4cccc(Cl)c4)c3)C2)cc1 (stereo not given) | –
-2 | CCn1c(=O)c(=O)n(CC(=O)NCc2ccccc2)c2ccccc21 | –
81 | Fc1ccc(N2CCN(c3ncnc4sc5c(c34)CCCC5)CC2)cc1 | –
– | COc1ccc(C(=O)NCc2nnc(SCC(=O)Nc3cccc(C(F)(F)F)c3)o2)cc1OC | inhibition [4]: 4%
27 | CCCc1c(C(=O)Nc2ccc(NC(C)=O)cc2)nnn1-c1ccc2noc(-c3ccccc3)c2c1 | –

inhibition [1] [%] | Structure (SMILES) | other results
97 | Cc1nc(Nc2ccc(NC(=O)Nc3cccc(C(F)(F)F)c3)cc2)cc(N2CCCCC2)n1 | inhibition [3]: 61%
– | Cc1c(C(=O)Nc2cccc(C(F)(F)F)c2)nnn1-c1ccc2noc(-c3ccc(Cl)cc3)c2c1 | inhibition [2]: 19%
– | CC(=O)Nc1ccc(NC(=O)Cc2csc(NC(=O)Nc3cccc(Cl)c3)n2)cc1 | inhibition [4]: 13%
-6 | COc1cc(NC(=O)N2CCN(c3cc(-c4ccc(C)cc4)ncn3)CC2)cc(OC)c1 | –
-6 | CC(=O)c1ccc(NC(=O)COc2cc(C(F)(F)F)c3c(C)nn(-c4ccc(C)cc4)c3n2)cc1 | –
– | Cc1ccc(Nc2cc(Nc3ccc(NC(=O)Nc4cccc(F)c4)cc3)nc(C)n2)cc1 | inhibition [4]: 5%
75 | Cc1ccc(Cl)cc1N1CCN(c2ncnc3sc(C(=O)O)c(C)c23)CC1 | –
19 | Fc1ccc(-c2noc3ncnc(N4CCN(c5ccccn5)CC4)c23)cc1 | –
1 | Cc1noc2ncnc(N3CCC(C(=O)NCCCN4CCOCC4)CC3)c12 | –
– | Cc1cc2nc(CSc3ccc(NC(=O)Nc4cccc(C(F)(F)F)c4)cc3)cc(=O)n2o1 | inhibition [4]: 59%
14 | O=C(Cc1ccccc1F)Nc1ccc2ncnc(N3CCCC3)c2c1 | –
-4 | Cc1ccc(-c2nc(C)cc(OCC(=O)Nc3ccc(C#N)cc3)n2)cc1 | –
6 | Cc1ccc2sc(NNC(=O)c3ccc(S(=O)(=O)CN4CCc5ccccc5C4)cc3)nc2c1C | –
– | CCc1nnc(NS(=O)(=O)c2ccc(NC(=O)Nc3ccc(Cl)c(Cl)c3)cc2)s1 | inhibition [4]: 59%
2 | Cc1ccc(-c2nccc(Nc3cccc(C(=O)NCc4ccc(C(C)C)cc4)c3)n2)cc1 | –
-3 | CCNc1c(NC(=O)NCc2ccc(C)cc2)c(=O)oc2ccccc12 | –
7 | Cc1ccc(NC(=O)CCc2nc3ccncc3[nH]2)cc1F | –
18 | O=C(Nc1c(C(=O)c2ccccc2)oc2ccccc12)c1cc(-c2ccc3c(c2)OCCO3)on1 | –
4 | Cc1ccc(Cl)cc1N1CCN(C(=O)c2noc3ncnc(N4CCCC4)c23)CC1 | –
– | CCNC(=O)c1cn(-c2ccc(SCC(=O)Nc3cccc(C(F)(F)F)c3)nn2)cn1 | inhibition [4]: 16%
– | COc1ccc(C(=O)N2CCCN(c3ccc(NC(=O)Nc4cccc(C(F)(F)F)c4)cn3)CC2)cc1 | inhibition [4]: 82%
15 | O=C(Nc1ccco1)NC1CCN(c2ncnc3c2CCC3)C1 (stereo not given) | –
10 | CCc1ccc(-n2c(SCc3ccccc3C)nc3[nH]ncc3c2=O)cc1 | –
– | CC(=O)Nc1ccc(NC(=O)c2nnn(-c3ccc4noc(-c5ccccc5)c4c3)c2C)cc1 | inhibition [2]: 59%
3 | O=C1Nc2ccc(F)cc2/C1=N\Nc1ccc(C(=O)N2CCCC2COc2ccc(F)cc2)cc1 (stereo not given) | –

inhibition [1] [%] | Structure (SMILES) | other results
– | Cc1nc(Nc2ccc(NC(=O)Nc3cccc(Cl)c3)cc2)cc(N2CCCCC2)n1 | inhibition [4]: 14%
10 | CC(=O)c1ccc(NC(=O)COc2cc(-c3ccccc3)nc3ccc(F)cc23)cc1 | –
16 | CCOC(=O)Cc1ccc(NC(=O)NC(C(=O)N2CCc3ccccc32)c2ccccc2)cc1 (stereo not given) | –
0 | CN(C)c1ccc(CNC(=O)C2CCN(c3ccc4nncn4n3)CC2)cc1 | –
– | O=C(CSc1ccc(N2CCCC(C(=O)NC3CC3)C2)nn1)Nc1cccc(C(F)(F)F)c1 (stereo not given) | inhibition [4]: 5%
– | C=CCNC(=O)C1CC(=O)N(c2ccc(OCC(=O)Nc3cccc(C(F)(F)F)c3)cc2)C1 (stereo not given) | inhibition [4]: 3%
0 | Cc1cc(C)c2c(n1)SCCN2C(=O)Nc1ccc(C(=O)NCc2cccc(Cl)c2)cc1 | –
9 | CCOC(=O)c1c(C)oc2ncnc(NCCc3ccc(OCC)cc3)c12 | –
– | CC(=O)Nc1ccc(NC(=O)c2ccc3noc(-c4ccc(Cl)cc4)c3c2)cc1 | inhibition [2]: 43%
101 | O=C(NCC1CCN(c2nsc(Cc3ccc(F)cc3)n2)CC1)Nc1ccc(Cl)c(Cl)c1 | IC50 (CDK8/Cyclin C): 6.5 nM; inhibition [3]: 101%
13 | Cc1ccc(-n2ncc(C(C)(C)C)c2NC(=O)CN(C)C(=O)Nc2ccccc2C)c(C)c1 | –
0 | O=C(NC1C2CS(=O)(=O)CC2NN1c1ccc(F)cc1)c1ccc(C(=O)c2ccccc2)cc1 (stereo not given) | –
4 | O=C(Nc1ccc2c(c1)OCCO2)c1cccc(Nc2cc(-c3ccc(F)cc3)ncn2)c1 | –
– | C=CCNC(=O)C1CCN(C(=O)Nc2ccc(NC(=O)Nc3cccc(F)c3)cc2)CC1 | inhibition [4]: 8%
99 | COc1ccc(CC(=O)N2CCN(c3ccc(NC(=O)Nc4cccc(C(F)(F)F)c4)cc3)CC2)cc1 | IC50 (CDK8/Cyclin C): 36 nM; inhibition [3]: 95%
0 | CCC(=O)Nc1nc2cc(NC(=O)c3cc(-c4ccccc4)nc4c(C)cccc34)ccc2s1 | –
– | O=C(Nc1cccc(C(F)(F)F)c1)Nc1nnc(SCc2nc3ccccc3[nH]c2=O)s1 | inhibition [4]: 100%; IC50 (CDK8/Cyclin C): 9 nM
24 | CNc1nccc(N2CCC(CC(=O)NCc3nc4ccccc4n3C)CC2)n1 | –
-7 | Cc1ccc(N2Cc3c(ncnc3N3CCCC(C(=O)NCc4cccc(C(F)(F)F)c4)C3)N2)cc1 (stereo not given) | –
3 | NNc1cc(N2CCN(c3ccccc3F)CC2)ncn1 | –
1 | COc1ccc(OC)c(NC(=O)Nc2ccc(Cn3cnc(-c4nc(-c5ccc(F)cc5)no4)c3)cc2)c1 | –
– | O=C(Nc1cccc(Cl)c1)Nc1nnc(CC(=O)N2CCCC2)s1 | inhibition [4]: 85%; IC50 (CDK8/Cyclin C): 183 nM
– | NC(=O)C1CC(=O)N(c2ccc(OCC(=O)Nc3cccc(C(F)(F)F)c3)cc2)C1 (stereo not given) | inhibition [4]: 12%
– | Cc1c(C(=O)Nc2ccc(-n3cnnn3)cc2)nnn1-c1ccc2noc(-c3ccccc3)c2c1 | inhibition [2]: -2%

Structure (SMILES) | inhibition [1] [%] | other results
CN[C@@H]1C[C@H]2O[C@@](C)([C@@H]1OC)n1c3ccccc3c3c4c(c5c6ccccc6n2c5c31)C(=O)NC4 | 99 | inhibition [3]: 100%
